In ChEMBL document CHEMBL1201862, “PubChem BioAssay data set” (2004):
Where “and” joins values, the source holds several entries; their conditions need not be identical. Identical values can stand only once. Calls of active or inactive are those of the source.

Experiments:
[1] = biological target: Voltage-dependent T-type calcium channel subunit alpha-1H (Homo sapiens, UniProt O95180); assay: Cav3.2 T-type channel blockers, cell-based, SynthLib3 library, HEK293 Cav3.2, fluorescence (AID 493041); type: functional
SUMO E1/E2 = SUMO E1/E2 (Homo sapiens, UniProt P63279+Q9UBE0+Q9UBT2); assay: SAR analysis of SUMOylation using HTRF in an in-Vitro dose response assay. [Related pubchem assays (depositor defined):AID2006, AID2011, AID2018, AID2069, AID2658]; type: functional
Chain of SUMO E1/E2 (Q9UBE0 whole entry): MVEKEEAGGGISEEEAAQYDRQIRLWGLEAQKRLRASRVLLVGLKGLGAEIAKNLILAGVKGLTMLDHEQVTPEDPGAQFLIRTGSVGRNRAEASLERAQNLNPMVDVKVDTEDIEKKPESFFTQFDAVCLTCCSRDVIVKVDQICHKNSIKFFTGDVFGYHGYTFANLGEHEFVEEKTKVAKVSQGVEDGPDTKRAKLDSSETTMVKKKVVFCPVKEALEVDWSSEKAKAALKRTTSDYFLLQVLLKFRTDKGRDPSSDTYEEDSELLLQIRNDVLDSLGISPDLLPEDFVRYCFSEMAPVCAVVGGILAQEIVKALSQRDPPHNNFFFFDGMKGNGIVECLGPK
Chain of SUMO E1/E2 (Q9UBT2 whole entry): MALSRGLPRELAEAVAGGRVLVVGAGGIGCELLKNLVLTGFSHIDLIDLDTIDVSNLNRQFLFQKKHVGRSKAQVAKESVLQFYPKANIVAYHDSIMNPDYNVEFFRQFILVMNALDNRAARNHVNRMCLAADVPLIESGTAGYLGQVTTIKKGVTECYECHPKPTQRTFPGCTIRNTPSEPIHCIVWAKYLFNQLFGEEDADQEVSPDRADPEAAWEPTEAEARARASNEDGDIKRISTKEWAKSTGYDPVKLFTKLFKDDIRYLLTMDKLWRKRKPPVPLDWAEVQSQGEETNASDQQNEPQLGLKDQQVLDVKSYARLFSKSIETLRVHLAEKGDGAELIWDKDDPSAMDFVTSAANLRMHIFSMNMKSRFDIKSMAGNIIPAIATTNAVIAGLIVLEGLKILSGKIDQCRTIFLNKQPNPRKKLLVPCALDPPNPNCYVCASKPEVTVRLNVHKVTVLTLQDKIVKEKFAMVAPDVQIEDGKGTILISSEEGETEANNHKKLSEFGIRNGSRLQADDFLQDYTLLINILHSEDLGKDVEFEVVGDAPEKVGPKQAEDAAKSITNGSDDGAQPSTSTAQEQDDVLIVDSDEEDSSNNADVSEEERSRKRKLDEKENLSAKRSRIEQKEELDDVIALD
Chain of SUMO E1/E2 (P63279 whole entry): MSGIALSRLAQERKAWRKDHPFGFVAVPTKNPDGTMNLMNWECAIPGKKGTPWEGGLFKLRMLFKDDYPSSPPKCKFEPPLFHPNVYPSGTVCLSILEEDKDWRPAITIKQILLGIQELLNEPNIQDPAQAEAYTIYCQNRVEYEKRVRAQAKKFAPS

[2] = biological target: T1, Voltage-gated N-type calcium channel alpha-1B subunit/Amyloid beta A4 precursor protein-binding family A member 1 (Homo sapiens, UniProt Q00975+Q02410); assay: disruptors of Mint-PDZ/N-type channel peptide interaction – biochemical, HTRF, set 2, SAR follow-up (AID 434980); type: functional
T1 sequence (Q00975 whole entry): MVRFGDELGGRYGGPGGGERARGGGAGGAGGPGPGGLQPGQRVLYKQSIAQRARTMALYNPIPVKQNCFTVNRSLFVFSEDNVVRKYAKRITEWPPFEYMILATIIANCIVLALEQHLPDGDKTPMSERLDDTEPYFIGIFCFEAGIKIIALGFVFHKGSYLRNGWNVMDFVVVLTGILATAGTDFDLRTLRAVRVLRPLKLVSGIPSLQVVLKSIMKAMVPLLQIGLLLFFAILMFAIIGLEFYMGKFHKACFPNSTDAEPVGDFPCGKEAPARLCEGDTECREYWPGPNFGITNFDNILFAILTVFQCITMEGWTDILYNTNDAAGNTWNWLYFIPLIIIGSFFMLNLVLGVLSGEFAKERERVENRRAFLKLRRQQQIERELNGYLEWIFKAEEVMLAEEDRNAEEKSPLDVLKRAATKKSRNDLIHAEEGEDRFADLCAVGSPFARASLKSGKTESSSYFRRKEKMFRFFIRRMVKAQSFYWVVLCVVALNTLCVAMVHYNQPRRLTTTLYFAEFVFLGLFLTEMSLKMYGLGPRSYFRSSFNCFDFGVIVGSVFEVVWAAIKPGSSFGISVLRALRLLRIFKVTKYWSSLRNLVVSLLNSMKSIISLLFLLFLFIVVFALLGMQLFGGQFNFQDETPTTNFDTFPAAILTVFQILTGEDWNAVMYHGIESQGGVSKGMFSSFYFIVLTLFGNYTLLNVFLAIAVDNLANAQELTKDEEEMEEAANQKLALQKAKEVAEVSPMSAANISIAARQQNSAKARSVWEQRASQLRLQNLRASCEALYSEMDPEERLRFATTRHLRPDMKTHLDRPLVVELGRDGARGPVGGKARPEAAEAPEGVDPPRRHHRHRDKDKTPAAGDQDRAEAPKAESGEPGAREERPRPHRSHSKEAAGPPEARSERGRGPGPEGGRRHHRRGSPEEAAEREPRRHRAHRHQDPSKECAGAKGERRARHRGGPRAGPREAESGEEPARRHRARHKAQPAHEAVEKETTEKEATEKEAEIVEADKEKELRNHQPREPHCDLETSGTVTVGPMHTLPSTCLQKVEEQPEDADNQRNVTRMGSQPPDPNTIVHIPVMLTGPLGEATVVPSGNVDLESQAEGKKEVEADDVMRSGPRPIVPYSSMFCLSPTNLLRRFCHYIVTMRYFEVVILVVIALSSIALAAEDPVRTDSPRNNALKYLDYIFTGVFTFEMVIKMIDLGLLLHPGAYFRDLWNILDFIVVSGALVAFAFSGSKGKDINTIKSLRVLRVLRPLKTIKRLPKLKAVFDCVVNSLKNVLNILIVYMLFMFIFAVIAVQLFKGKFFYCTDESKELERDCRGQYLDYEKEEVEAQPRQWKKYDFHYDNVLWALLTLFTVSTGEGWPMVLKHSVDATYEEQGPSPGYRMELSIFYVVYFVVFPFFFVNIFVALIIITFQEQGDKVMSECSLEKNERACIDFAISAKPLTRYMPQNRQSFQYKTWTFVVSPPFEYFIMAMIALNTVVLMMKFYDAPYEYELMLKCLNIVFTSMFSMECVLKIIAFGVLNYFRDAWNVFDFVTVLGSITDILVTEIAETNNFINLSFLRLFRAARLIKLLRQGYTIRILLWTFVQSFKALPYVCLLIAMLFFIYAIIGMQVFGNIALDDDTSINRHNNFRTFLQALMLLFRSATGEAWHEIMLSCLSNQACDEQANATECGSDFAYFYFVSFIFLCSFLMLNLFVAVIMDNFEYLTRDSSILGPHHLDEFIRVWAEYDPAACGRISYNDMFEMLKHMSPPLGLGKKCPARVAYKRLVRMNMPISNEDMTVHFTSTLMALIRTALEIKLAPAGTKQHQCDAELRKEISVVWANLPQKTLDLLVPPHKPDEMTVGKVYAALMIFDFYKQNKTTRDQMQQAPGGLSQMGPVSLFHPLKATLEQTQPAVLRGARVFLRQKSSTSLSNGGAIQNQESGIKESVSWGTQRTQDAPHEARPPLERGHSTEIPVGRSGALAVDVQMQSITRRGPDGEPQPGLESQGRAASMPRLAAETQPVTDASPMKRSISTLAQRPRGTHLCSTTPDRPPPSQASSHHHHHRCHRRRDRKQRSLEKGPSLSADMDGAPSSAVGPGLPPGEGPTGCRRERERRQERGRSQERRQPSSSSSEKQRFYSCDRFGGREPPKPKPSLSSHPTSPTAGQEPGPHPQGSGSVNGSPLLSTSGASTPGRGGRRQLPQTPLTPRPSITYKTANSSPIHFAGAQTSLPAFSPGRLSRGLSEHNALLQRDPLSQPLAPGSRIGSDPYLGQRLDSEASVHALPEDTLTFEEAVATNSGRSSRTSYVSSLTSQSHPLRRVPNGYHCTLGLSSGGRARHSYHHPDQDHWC
T1 sequence (Q02410 whole entry): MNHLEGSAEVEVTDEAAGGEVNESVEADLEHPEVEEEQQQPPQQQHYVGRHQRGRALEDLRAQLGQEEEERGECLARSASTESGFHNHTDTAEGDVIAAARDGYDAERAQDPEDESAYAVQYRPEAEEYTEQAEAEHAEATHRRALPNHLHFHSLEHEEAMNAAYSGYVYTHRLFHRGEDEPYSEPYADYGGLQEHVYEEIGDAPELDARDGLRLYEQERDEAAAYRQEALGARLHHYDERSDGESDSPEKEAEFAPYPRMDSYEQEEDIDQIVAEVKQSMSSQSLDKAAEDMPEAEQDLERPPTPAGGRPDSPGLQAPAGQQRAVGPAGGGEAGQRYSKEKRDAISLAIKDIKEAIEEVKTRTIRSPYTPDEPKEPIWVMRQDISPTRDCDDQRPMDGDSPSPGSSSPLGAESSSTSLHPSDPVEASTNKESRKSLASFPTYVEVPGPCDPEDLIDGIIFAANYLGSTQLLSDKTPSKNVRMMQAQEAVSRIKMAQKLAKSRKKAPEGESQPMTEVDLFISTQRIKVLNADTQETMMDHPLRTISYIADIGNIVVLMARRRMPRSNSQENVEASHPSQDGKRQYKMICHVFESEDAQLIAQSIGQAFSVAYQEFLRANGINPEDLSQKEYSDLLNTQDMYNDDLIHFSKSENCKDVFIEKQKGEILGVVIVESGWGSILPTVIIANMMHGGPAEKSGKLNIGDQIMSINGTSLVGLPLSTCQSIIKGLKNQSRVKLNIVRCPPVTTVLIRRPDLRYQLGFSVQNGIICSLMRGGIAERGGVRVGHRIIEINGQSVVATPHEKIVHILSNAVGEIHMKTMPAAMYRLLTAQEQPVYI

[3] = biological target: T1, Voltage-gated N-type calcium channel alpha-1B subunit/Amyloid beta A4 precursor protein-binding family A member 1; assay: disruptors of Mint-PDZ/N-type channel peptide interaction – biochemical, HTRF, SAR follow-up (AID 2489); type: functional
[4] = biological target: Metabotropic glutamate receptor 6 (Homo sapiens, UniProt O15303); assay: Modulation of the Metabotropic Glutamate Receptor mGluR4: Selectivity at mGluR6. [Related pubchem assays (depositor defined):AID2437, AID2807]; type: functional
[5] = biological target: Metabotropic glutamate receptor 1 (Rattus norvegicus, UniProt P23385); assay: Modulation of the Metabotropic Glutamate Receptor mGluR4: Selectivity at mGluR1. [Related pubchem assays (depositor defined):AID2437, AID2807]; type: functional
[6] = biological target: Metabotropic glutamate receptor 2 (Rattus norvegicus, UniProt P31421); assay: rat mGluR2 glutamate potency shift by compounds, selectivity assay for mGluR4 modulator project, cell-based (AID 2188); type: functional
[7] = biological target: Metabotropic glutamate receptor 8 (Rattus norvegicus, UniProt P70579); assay: Modulation of the Metabotropic Glutamate Receptor mGluR4: Selectivity at mGluR8. [Related pubchem assays (depositor defined):AID2437, AID2807]; type: functional
[8] = biological target: Metabotropic glutamate receptor 3 (Rattus norvegicus, UniProt P31422); assay: Modulation of the Metabotropic Glutamate Receptor mGluR4: Selectivity at mGluR3. [Related pubchem assays (depositor defined):AID2437, AID2807]; type: functional
Nonstructural protein 1 = Nonstructural protein 1 (Influenza A virus, UniProt Q194T2); type: functional, Influenza A virus (A/California/07/2009(H1N1))
Chain of Nonstructural protein 1 (Q194T2 whole entry): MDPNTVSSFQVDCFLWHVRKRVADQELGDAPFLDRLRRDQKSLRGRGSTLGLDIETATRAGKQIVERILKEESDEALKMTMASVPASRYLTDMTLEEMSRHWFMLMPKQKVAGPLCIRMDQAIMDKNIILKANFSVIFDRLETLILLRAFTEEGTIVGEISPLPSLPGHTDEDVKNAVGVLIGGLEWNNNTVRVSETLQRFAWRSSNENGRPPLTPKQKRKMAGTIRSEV

[9] = inhibitors of intracellular T. cruzi replication, confirmation, NIH3T3 host cells, beta-gal luminescence (AID 2044); type: functional, cell-based;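 further: intracellular parasites grown in NIH/3T3 mouse fibroblasts as host cells; luminescent beta-galactosidase reporter signal from transgenic T. cruzi replicating inside host cells; inhibitors lower the luminescence signal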
[10] = growth suppression of beta-catenin-knockout colon cells, dose response, cell-based, HCT116, human colon tumor (AID 1045); type: functional;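 further: HCT116 colon tumor cells with beta catenin knocked out; cells exposed to compound for 60 hours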
[11] = biological target: T2, DNA repair and recombination protein RAD54-like (Homo sapiens, UniProt Q92698); assay: inhibitors of human RAD54 branch migration, confirmation, biochemical, fluorescence, cherry-picked samples, dose series (AID 651657); type: functional
T2 sequence (Q92698 whole entry): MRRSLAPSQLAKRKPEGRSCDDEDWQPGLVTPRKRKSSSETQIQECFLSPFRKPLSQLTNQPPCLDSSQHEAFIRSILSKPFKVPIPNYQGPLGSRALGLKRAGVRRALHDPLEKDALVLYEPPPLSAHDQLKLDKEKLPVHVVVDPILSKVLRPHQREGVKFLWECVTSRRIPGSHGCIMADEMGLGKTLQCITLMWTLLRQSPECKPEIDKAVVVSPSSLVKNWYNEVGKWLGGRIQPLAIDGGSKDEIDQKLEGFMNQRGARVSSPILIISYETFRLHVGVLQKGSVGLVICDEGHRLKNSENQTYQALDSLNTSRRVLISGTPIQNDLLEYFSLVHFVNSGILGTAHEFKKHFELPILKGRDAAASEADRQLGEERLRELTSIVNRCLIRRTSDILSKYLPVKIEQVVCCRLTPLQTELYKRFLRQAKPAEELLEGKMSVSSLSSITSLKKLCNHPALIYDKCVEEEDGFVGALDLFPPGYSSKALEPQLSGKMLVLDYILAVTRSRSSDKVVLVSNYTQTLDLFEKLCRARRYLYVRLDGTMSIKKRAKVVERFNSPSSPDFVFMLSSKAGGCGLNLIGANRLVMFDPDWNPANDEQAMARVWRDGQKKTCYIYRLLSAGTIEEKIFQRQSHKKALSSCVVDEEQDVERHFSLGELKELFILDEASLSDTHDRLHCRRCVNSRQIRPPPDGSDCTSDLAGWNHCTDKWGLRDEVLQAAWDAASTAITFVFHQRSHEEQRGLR

[12] = growth suppression of PTEN-null colon cells, dose response, cell-based, HCT116 PTEN knockout (AID 1047); type: functional;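 further: HCT116 colon tumor cells with PTEN knocked out; cells exposed to compound for 60 hours before readout; potency for loss of cell viability measured by luminescence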
[13] = cytotoxicity toward NIH3T3 fibroblasts, dose response, counter-screen, cell-based, ATP luminescence, mouse fibroblasts (AID 2010); type: functional;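 further: cells exposed to compound for about 90 hours before reading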
[14] = biological target: T3, Mannose-6-phosphate isomerase (Homo sapiens, UniProt P34949); assay: inhibitors of human PMI, primary screen, biochemical, fluorescence intensity, coupled assay (AID 1209)
T3 sequence (P34949 whole entry): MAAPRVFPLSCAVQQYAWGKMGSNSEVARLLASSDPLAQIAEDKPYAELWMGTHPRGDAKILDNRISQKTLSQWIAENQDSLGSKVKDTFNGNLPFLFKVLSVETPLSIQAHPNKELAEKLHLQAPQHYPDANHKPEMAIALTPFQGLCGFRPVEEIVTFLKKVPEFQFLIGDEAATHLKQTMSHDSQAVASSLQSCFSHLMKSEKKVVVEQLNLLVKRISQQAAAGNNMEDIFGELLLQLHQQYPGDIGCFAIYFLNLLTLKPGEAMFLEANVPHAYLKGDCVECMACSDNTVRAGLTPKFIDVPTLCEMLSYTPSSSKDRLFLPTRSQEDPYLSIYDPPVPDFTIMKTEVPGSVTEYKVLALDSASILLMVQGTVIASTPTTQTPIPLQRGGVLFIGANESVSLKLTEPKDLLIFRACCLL

[15] = MDA-MB-231 cell growth inhibition, dose response, cytotoxicity control for RAD54 inhibitor project, CellTiter-Glo luminescence, cherry-pick (AID 651692); type: functional, cell-based
[16] = Luminescence-based counterscreen assay for KLF5 inhibitors: dose response cell-based high throughput screening assay to identify cytotoxic compounds using the IEC-6 intestinal epithelial cell line. [Related pubchem assays: 1700 (Primary screen.), 1834 (Confirmation screen.), 1858 (Summary AID.), 1905 (Counterscreen.)]; type: functional
[17] = C. albicans growth with fluconazole, confirmation, fluorescence, retest (AID 2467); type: functional, cell-based
INS1 = assay: beta cell apoptosis inhibitors, cytokine rescue, dose response, luminescence, retest (AID 449756); type: functional, cell-based; conditions: Rattus norvegicus;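 further: cell death triggered by IL-1 beta plus TNF-alpha plus IFN-gamma mixture; protective hits raise ATP signal compared with cytokine alone wells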
[18] = insulin promoter down-regulators in MIN6 cells, imaging, high-content screening, mouse beta cells (AID 1628); type: functional
[19] = cytotoxicity in MIN6 insulinoma cells, dose response, cytotoxicity control, cell-based, mouse insulinoma (AID 2122); type: functional;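 further: confirmatory high-throughput counterscreen run to flag cytotoxic compounds; mouse MIN-6 beta cells carrying an insulin promoter eGFP reporter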
[20] = NIH-3T3 fibroblast cytotoxicity, dose response, cytotoxicity control, cell-based, fluorescence, Alamar Blue, secondary assay (AID 2327); type: functional;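 further: NIH-3T3 mouse fibroblasts cultured with fluconazole at 8 µg/mL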

O=C(NCC1[C@H]2CN(CC3CCCC3)C[C@@H]12)c1cc(Cl)cc(Cl)c1 (stereo partly drawn)
EC50 [1]: 3000 nM (active)

O=C(COC(=O)c1cc(-c2ccco2)nc2ccccc12)NCc1ccc(Cl)cc1
IC50 (SUMO E1/E2): 2.84 µM (active) and 4.46 µM (active)
IC50 [2]: 7.73 µM (active) and 9.82 µM (active)
IC50 [3]: 10.4 µM (active) and > 56.8 µM (inactive)

O=C(Nc1ccc(N2C(=O)[C@H]3[C@H](C2=O)[C@H]2C=C[C@@H]3C2)c(Cl)c1)c1ccccn1
EC50 [4]: 2510 nM (active)
EC50 [5]: 1400 nM (inactive)
EC50 [6]: 787 nM (inactive)
EC50 [7]: 11000 nM (inactive)
EC50 [8]: 514 nM (inactive)

Oc1cccc2ccc(Nc3ccccn3)nc12
IC50 (Nonstructural protein 1): 2350 nM (active)
EC50 [9]: 1120 nM (active)
EC50 [10]: 713 nM (active)
AC50 [11]: 15500 nM (active)
EC50 [12]: 1230 nM (active)
EC50 [13]: 6000 nM (active)
IC50 [14]: > 50000 nM (not active)
AC50 [15]: 15100 nM (active)
IC50 [16]: 6800 nM (active)
EC50 [17]: 1550 nM (active)
AC50 (INS1): 1180 nM (active)
IC50 [18]: 3030 nM (active)
IC50 [19]: 2350 nM (active)
EC50 [20]: 4930 nM (inconclusive)
